# Source: ChEMBL document CHEMBL4814067, “An optimized analog of antimicrobial peptide Jelleine-1 shows enhanced antimicrobial activity against multidrug resistant P. aeruginosa and negligible toxicity in vitro and in vivo” (Eur J Med Chem, 2021)
# Activity calls are given as the source filed them. No cut-off for these calls is given here. Positions of bridges follow the written chain, without caps; N, C: chain ends. Non-standard residues stand in square brackets, D forms with d. Residues, ends and D or L forms follow the SMILES beside them. *: point of attachment. X1 = CC[C@H](C)CCCCC(=O)*; Dab = NCC[C@H](N)C(=O)O
# Columns and labels:
# [1] = system: Staphylococcus aureus; test: Antibacterial activity against methicillin resistant Staphylococcus aureus clinical isolate 4 assessed as transparent well by visual inspection after 18 hrs by CLSI based-broth microdilution method; assay type: functional
# [2] = system: Staphylococcus epidermidis; test: Antibacterial activity against Staphylococcus epidermidis ATCC 12228 assessed as transparent well by visual inspection after 18 hrs by CLSI based-broth microdilution method; assay type: functional
# [3] = system: Escherichia coli; test: Antibacterial activity against ESBL-producing Escherichia coli clinical isolate 1 assessed as transparent well by visual inspection after 18 hrs by CLSI based-broth microdilution method; assay type: functional
# [4] = system: Staphylococcus aureus; test: Antibacterial activity against methicillin resistant Staphylococcus aureus clinical isolate 1 assessed as transparent well by visual inspection after 18 hrs by CLSI based-broth microdilution method; assay type: functional; conditions: C1
# [5] = system: Escherichia coli; test: Antibacterial activity against ESBL-producing Escherichia coli clinical isolate 5 assessed as transparent well by visual inspection after 18 hrs by CLSI based-broth microdilution method; assay type: functional
# [6] = system: Enterobacter sp.; test: Antibacterial activity against Enterobacter sakazakii ATCC 29544 assessed as transparent well by visual inspection after 18 hrs by CLSI based-broth microdilution method; assay type: functional
# [7] = system: Staphylococcus aureus; test: Antibacterial activity against Staphylococcus aureus ATCC 29213 assessed as transparent well by visual inspection after 18 hrs by CLSI based-broth microdilution method; assay type: functional; conditions: C1 ATCC 29213
# [8] = system: Bacillus subtilis; test: Antibacterial activity against Bacillus subtilis ATCC 23857 assessed as transparent well by visual inspection after 18 hrs by CLSI based-broth microdilution method; assay type: functional
# [9] = system: Escherichia coli; test: Antibacterial activity against ESBL-producing Escherichia coli clinical isolate 3 assessed as transparent well by visual inspection after 18 hrs by CLSI based-broth microdilution method; assay type: functional
# [10] = system: Staphylococcus aureus; test: Antibacterial activity against methicillin resistant Staphylococcus aureus clinical isolate 2 assessed as transparent well by visual inspection after 18 hrs by CLSI based-broth microdilution method; assay type: functional
# [11] = system: Pseudomonas aeruginosa; test: Antibacterial activity against Pseudomonas aeruginosa ATCC 27853 assessed as transparent well by visual inspection after 18 hrs by CLSI based-broth microdilution method; assay type: functional
# [12] = system: Pseudomonas aeruginosa; test: Antibacterial activity against Pseudomonas aeruginosa clinical isolate assessed as transparent well by visual inspection after 18 hrs by CLSI based-broth microdilution method; assay type: functional
# [13] = system: Escherichia coli; test: Antibacterial activity against ESBL-producing Escherichia coli clinical isolate 2 assessed as transparent well by visual inspection after 18 hrs by CLSI based-broth microdilution method; assay type: functional
# [14] = system: Escherichia coli; test: Antibacterial activity against Escherichia coli ATCC 25922 assessed as transparent well by visual inspection after 18 hrs by CLSI based-broth microdilution method; assay type: functional
# [15] = system: Staphylococcus aureus; test: Antibacterial activity against methicillin resistant Staphylococcus aureus clinical isolate 3 assessed as transparent well by visual inspection after 18 hrs by CLSI based-broth microdilution method; assay type: functional
# [16] = system: Escherichia coli; test: Antibacterial activity against ESBL-producing Escherichia coli clinical isolate 4 assessed as transparent well by visual inspection after 18 hrs by CLSI based-broth microdilution method; assay type: functional
# [17] = system: Pseudomonas aeruginosa; test: Inhibition of biofilm formation in multidrug-resistant Pseudomonas aeruginosa at 256 uM measured after 24 hrs by crystal violet staining based assay; assay type: functional, organism-based
# [18] = system: Erythrocyte; test: Haemolytic activity in human erythrocytes at 256 uM by optical absorption assay; assay type: ADME, cell-based
# [19] = system: Cell membrane; test: Induction of inner membrane permeabilization in Escherichia coli ML-35 assessed as increase in ONPG at 1 to 8 times of MIC measured 100 mins by multimode reader
# [20] = system: Cell membrane; test: Induction of outer membrane permeabilization in Escherichia coli using NPN hydrophobic fluorescent probe at 1 to 8 times of MIC measured for 15 mins by multimode reader
# [21] = system: NIH3T3; test: Cytotoxicity against mouse NIH/3T3 assessed as reduction in cell viability measured after 24 hrs by MTT assay; assay type: cell-based; conditions: nih3t3, 24 h
# [22] = system: RAW264.7; test: Cytotoxicity against mouse RAW264.7 assessed as reduction in cell viability measured after 24 hrs by MTT assay; assay type: cell-based; conditions: raw264.7, 24 h
# [23] = system: Escherichia coli; test: Bactericidal activity against Escherichia coli assessed as killing effect at 1 times MIC measured at 120 mins by bacterial colony counting assay; assay type: functional, organism-based
# [24] = system: Staphylococcus aureus; test: Bactericidal activity against Staphylococcus aureus assessed as killing effect at 1 times MIC measured at 120 mins by bacterial colony counting assay; assay type: functional, organism-based
# [25] = system: Erythrocyte; test: Haemolytic activity in human erythrocytes by optical absorption assay; assay type: ADME, cell-based
# [26] = system: Staphylococcus aureus; test: Bactericidal activity against Staphylococcus aureus assessed as killing effect at 2 times MIC measured at 60 mins by bacterial colony counting assay; assay type: functional; conditions: 1 h
# [27] = system: Escherichia coli; test: Bactericidal activity against Escherichia coli assessed as killing effect at 2 times MIC measured at 60 mins by bacterial colony counting assay; assay type: functional; conditions: 1 h
# [28] = system: HeLa; test: Cytotoxicity against human HeLa cells assessed as reduction in cell viability measured after 24 hrs by MTT assay; assay type: cell-based
# [29] = Toxicity in mouse assessed as effect on total albumin level at 10 to 30 mg/kg, ip measured after 8 days; assay type: organism-based; conditions: in vivo, 192 h, dose 10-30 mg/kg, time 8 day
# [30] = Toxicity in mouse assessed as effect on body weight at 10 to 30 mg/kg, ip measured after 8 days; assay type: organism-based; conditions: in vivo, 192 h, dose 10-30 mg/kg, time 8 day
# [31] = system: Pseudomonas aeruginosa; test: Antimicrobial activity against multidrug-resistant Pseudomonas aeruginosa infected in peritonitis sepsis mouse model assessed as increase in mouse survival rate at 30 mg/kg, ip measured after 7 days; assay type: functional, organism-based; conditions: time 7.0 day
# [32] = Toxicity in mouse assessed as effect on aspartate transaminase level at 10 to 30 mg/kg, ip measured after 8 days; assay type: organism-based; conditions: in vivo, 192 h, dose 10-30 mg/kg, time 8 day
# [33] = system: Pseudomonas aeruginosa; test: Inhibition of biofilm formation in multidrug-resistant Pseudomonas aeruginosa at 64 uM measured after 24 hrs by crystal violet staining based assay; assay type: functional
# [34] = Toxicity in mouse assessed as effect on alanine aminotransferase level at 10 to 30 mg/kg, ip measured after 8 days; assay type: organism-based; conditions: in vivo, 192 h, dose 10-30 mg/kg, time 8 day
# [35] = Toxicity in mouse assessed as effect on total protein level at 10 to 30 mg/kg, ip measured after 8 days; assay type: organism-based; conditions: in vivo, 192 h, dose 10-30 mg/kg, time 8 day
# [36] = system: Staphylococcus aureus; test: Bactericidal activity against Staphylococcus aureus assessed as killing effect at 1 times MIC measured at 240 mins by bacterial colony counting assay; assay type: functional, organism-based
# [37] = system: Pseudomonas aeruginosa; test: Antimicrobial activity against multidrug-resistant Pseudomonas aeruginosa infected in peritonitis sepsis mouse model assessed as increase in mouse survival rate at 10 mg/kg, ip measured after 3 days; assay type: functional, organism-based; conditions: time 3.0 day
molecule,measurement,setting,value
CC[C@H](C)CCCCC(=O)N[C@@H](CCN)C(=O)N[C@H](C(=O)N[C@@H](CCN)C(=O)N[C@H]1CCNC(=O)[C@H]([C@@H](C)O)NC(=O)[C@H](CCN)NC(=O)[C@H](CCN)NC(=O)[C@H](CC(C)C)NC(=O)[C@@H](Cc2ccccc2)NC(=O)[C@H](CCN)NC1=O)[C@@H](C)O (X1-[Dab]T[Dab][Dab][Dab][dF]L[Dab][Dab]T; lactam 4-C),MIC,[1],8 µM
same,MIC,[2],2 µM
same,MIC,[3],0.5 µM
same,MIC,[4],8 µM
same,MIC,[5],0.5 µM
same,MIC,[6],0.5 µM
same,MIC,[7],8 µM
same,MIC,[8],2 µM
same,MIC,[9],0.5 µM
same,MIC,[10],8 µM
same,MIC,[11],1 µM
same,MIC,[12],1 µM
same,MIC,[13],0.5 µM
same,MIC,[14],0.5 µM
same,MIC,[15],8 µM
same,MIC,[16],0.5 µM
H-PFKLKLHL-OH,MIC,[2],32 µM
same,MIC,[6],32 µM
same,MIC,[7],128 µM
same,MIC,[8],32 µM
same,MIC,[11],32 µM
same,MIC,[14],32 µM
H-PFKLKLKL-OH,MIC,[2],16 µM
same,MIC,[6],32 µM
same,MIC,[7],128 µM
same,MIC,[8],16 µM
same,MIC,[11],32 µM
same,MIC,[14],32 µM
H-PFKLSLHL-OH,MIC,[1],128 µM
same,MIC,[2],64 µM
same,MIC,[3],32 µM
same,inhibition,[17],Active
same,Activity,[18],Toxic
same,MIC,[4],128 µM
same,MIC,[5],32 µM
same,MIC,[6],64 µM
same,MIC,[7],128 µM
same,MIC,[8],32 µM
same,MIC,[9],32 µM
same,Activity,[19],Active
same,MIC,[10],128 µM
same,MIC,[11],32 µM
same,MIC,[12],32 µM
same,MIC,[13],32 µM
same,MIC,[14],32 µM
same,MIC,[15],128 µM
same,Activity,[20],Dose-Dependent Effect
same,MIC,[16],32 µM
H-PFKLSLKL-OH,MIC,[2],16 µM
same,MIC,[6],32 µM
same,MIC,[7],128 µM
same,MIC,[8],16 µM
same,MIC,[11],32 µM
same,MIC,[14],32 µM
H-PFRLRLHL-OH,MIC,[2],34 µM
same,MIC,[6],32 µM
same,MIC,[7],128 µM
same,MIC,[8],16 µM
same,MIC,[11],32 µM
same,MIC,[14],16 µM
H-PFRLRLRL-OH,Activity,[21],Non-Toxic
same,MIC,[1],64 µM
same,Activity,[22],Non-Toxic
same,MIC,[2],16 µM
same,MIC,[3],8 µM
same,Activity,[23],Active
same,inhibition,[17],Active
same,Activity,[24],Active
same,MIC,[4],64 µM
same,Activity,[25],Non-Toxic
same,MIC,[5],8 µM
same,MIC,[6],32 µM
same,MIC,[7],64 µM
same,MIC,[8],8 µM
same,MIC,[9],8 µM
same,Activity,[19],Active
same,MIC,[10],64 µM
same,MIC,[11],8 µM
same,MIC,[12],8 µM
same,Activity,[26],100%
same,MIC,[13],8 µM
same,MIC,[14],8 µM
same,MIC,[15],64 µM
same,Activity,[20],Dose-Dependent Effect
same,MIC,[16],8 µM
same,Activity,[27],100%
same,Activity,[28],Non-Toxic
H-PFRLSLHL-OH,MIC,[2],34 µM
same,MIC,[6],32 µM
same,MIC,[7],128 µM
same,MIC,[8],16 µM
same,MIC,[11],32 µM
same,MIC,[14],32 µM
H-PFRLSLRL-OH,MIC,[2],16 µM
same,MIC,[6],16 µM
same,MIC,[7],64 µM
same,MIC,[8],16 µM
same,MIC,[11],32 µM
same,MIC,[14],8 µM
H-PWKLKLHL-OH,MIC,[2],32 µM
same,MIC,[6],16 µM
same,MIC,[7],64 µM
same,MIC,[8],16 µM
same,MIC,[11],32 µM
same,MIC,[14],16 µM
H-PWKLKLKL-OH,MIC,[2],16 µM
same,MIC,[6],16 µM
same,MIC,[7],32 µM
same,MIC,[8],16 µM
same,MIC,[11],64 µM
same,MIC,[14],16 µM
H-PWKLSLHL-OH,MIC,[2],32 µM
same,MIC,[6],16 µM
same,MIC,[7],64 µM
same,MIC,[8],16 µM
same,MIC,[11],16 µM
same,MIC,[14],16 µM
H-PWKLSLKL-OH,MIC,[2],16 µM
same,MIC,[6],8 µM
same,MIC,[7],32 µM
same,MIC,[8],16 µM
same,MIC,[11],32 µM
same,MIC,[14],16 µM
H-PWRLRLHL-OH,MIC,[2],16 µM
same,MIC,[6],8 µM
same,MIC,[7],32 µM
same,MIC,[8],8 µM
same,MIC,[11],32 µM
same,MIC,[14],8 µM
H-PWRLRLRL-OH,Activity,[29],Non-Toxic
same,Activity,[21],Non-Toxic
same,Activity,[30],Non-Toxic
same,Activity,[31],Active
same,MIC,[1],32 µM
same,Activity,[22],Non-Toxic
same,MIC,[2],8 µM
same,MIC,[3],4 µM
same,Activity,[23],Active
same,MIC,[4],32 µM
same,Activity,[25],Non-Toxic
same,MIC,[5],4 µM
same,MIC,[6],8 µM
same,MIC,[7],32 µM
same,MIC,[8],4 µM
same,MIC,[9],4 µM
same,Activity,[32],Non-Toxic
same,Activity,[19],Active
same,inhibition at 64 µM,[33],74.6%
same,Activity,[34],Non-Toxic
same,Activity,[35],Non-Toxic
same,MIC,[10],32 µM
same,MIC,[11],8 µM
same,MIC,[12],8 µM
same,Activity,[26],100%
same,MIC,[13],4 µM
same,MIC,[14],4 µM
same,MIC,[15],32 µM
same,Activity,[20],Dose-Dependent Effect
same,Activity,[36],Active
same,MIC,[16],4 µM
same,Activity,[27],100%
same,Activity,[28],Non-Toxic
same,Activity,[37],inactive
H-PWRLSLHL-OH,MIC,[2],8 µM
same,MIC,[6],16 µM
same,MIC,[7],32 µM
same,MIC,[8],16 µM
same,MIC,[11],32 µM
same,MIC,[14],16 µM
H-PWRLSLRL-OH,MIC,[2],16 µM
same,MIC,[6],8 µM
same,MIC,[7],32 µM
same,MIC,[8],8 µM
same,MIC,[11],8 µM
same,MIC,[14],8 µM
